Measurements taken from US6737397B1, “Control of cancer growth through the interaction of [MET5]-enkephalin and the zeta receptor” (The Penn State Research Foundation, priority 1996, dated 2004).
“And” between values parts separate entries of the source, which are not always exact repeats. Equal entries are not always repeated. Where two headings read alike, the source gives them in different places. Marks after values point to notes of the source that are not given here.

Tests used:
[1] = target: T1, ζ-opioid receptor (Homo sapiens, UniProt Q9NZT2); experiment: Effect of cations and guanyl nucleotides on [3H]-[Met5]-enkephalin binding to HT-29 nuclear homogenates; design: from tissue; host or cells: HT-29 human colon tumor xenografts grown in athymic nude mice; nuclear (P1) and other subcellular fractions; conditions: 5, 100, 200, or 500 μM
T1 sequence (Q9NZT2 1-677): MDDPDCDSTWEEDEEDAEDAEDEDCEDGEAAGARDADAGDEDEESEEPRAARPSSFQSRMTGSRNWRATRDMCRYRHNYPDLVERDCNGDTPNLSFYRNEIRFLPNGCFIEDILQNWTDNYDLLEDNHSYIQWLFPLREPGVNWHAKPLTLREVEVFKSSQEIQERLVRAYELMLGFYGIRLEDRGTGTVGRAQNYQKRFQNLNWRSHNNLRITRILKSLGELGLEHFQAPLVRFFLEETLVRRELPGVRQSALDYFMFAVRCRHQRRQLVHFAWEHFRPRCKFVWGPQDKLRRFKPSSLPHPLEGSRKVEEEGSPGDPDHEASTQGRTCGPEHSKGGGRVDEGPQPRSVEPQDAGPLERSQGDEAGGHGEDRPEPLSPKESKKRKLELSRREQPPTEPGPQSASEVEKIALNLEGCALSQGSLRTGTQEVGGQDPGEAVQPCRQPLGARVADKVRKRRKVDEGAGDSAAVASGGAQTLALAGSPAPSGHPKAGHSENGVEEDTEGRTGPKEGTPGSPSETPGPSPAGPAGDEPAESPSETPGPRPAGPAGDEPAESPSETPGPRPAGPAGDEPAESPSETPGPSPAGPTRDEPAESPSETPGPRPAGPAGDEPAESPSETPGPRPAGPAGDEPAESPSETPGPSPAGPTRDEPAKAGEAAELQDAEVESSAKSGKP
Description: Histograms represent the percent of specific binding±SE.

[2] = target: T2, μ-opioid receptor (Homo sapiens, UniProt P35372); experiment: [3H]DAMGO binding to HT-29 nuclear (P1) and membrane (P2) homogenates; conditions: P2 fraction
T2 construct: from tissue; host or cells: HT-29 human colon tumor xenografts from nude mice; nuclear (P1) and membrane (P2) homogenates
T2 sequence (P35372 whole entry): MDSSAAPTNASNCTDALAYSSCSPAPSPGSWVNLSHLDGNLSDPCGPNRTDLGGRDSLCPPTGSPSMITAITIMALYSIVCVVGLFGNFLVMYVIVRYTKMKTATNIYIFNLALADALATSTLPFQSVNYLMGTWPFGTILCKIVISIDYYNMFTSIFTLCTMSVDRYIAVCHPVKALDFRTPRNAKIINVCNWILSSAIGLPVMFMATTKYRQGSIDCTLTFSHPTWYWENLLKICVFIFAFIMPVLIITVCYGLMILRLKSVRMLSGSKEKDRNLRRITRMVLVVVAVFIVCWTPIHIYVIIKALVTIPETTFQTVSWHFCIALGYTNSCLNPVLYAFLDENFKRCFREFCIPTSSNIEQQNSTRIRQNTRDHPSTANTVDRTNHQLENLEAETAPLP

[3] = target: ζ opioid receptor (Homo sapiens, UniProt Q9NZT2)
Method: Receptor binding assays were performed according to procedures reported elsewhere [8] with some slight modifications. […] Six assays were performed to establish binding kinetics in control tumor tissue, whereas three independent assays were conducted on tumors from mice for comparison of OGF and control groups.
Receptor binding data were analyzed with a Lundon 1 (Saturation Isotherm Binding Analysis) computer program (Lundon Software, Chagrin Falls, Ohio) and Prism Software (San Diego, Calif.). Both analyses utilized non-linear least-squares regression. Saturation curves and Scatchard plots were computed directly by these programs.
Mean binding affinities and capacities for tumor tissue from animals in the OGF and control groups were compared using analysis of variance and Newman-Keuls tests.

[4] = tested on: COLO 205 cells; experiment: Growth assay (cell counts) of COLO 205 human colon cancer cells; assay type: cell-based; conditions: 10^−6 M, 48 hr
Method: (§1) HT-29, WiDr, and COLO 205 cell lines were obtained from the American Type Culture Collection (Rockville, Md.). HT-29 cells were grown in McCoy's 5A media (modified), WiDr cells in Minimum Essential Media, and COLO 205 cells in RPMI 1640 media; all media contained 10% fetal calf serum, 2 mM […], 1.2% sodium bicarbonate and antibiotics (11 Units/ml penicillin, 10 μg/ml streptomycin, 10 μg/ml neomycin) in a humidified atmosphere of 7% CO2/93% air at 37° C. In some examples, cultures of HT-29 cells were maintained in McCoy's 5A media without fetal calf serum.
(§2) Cells were seeded at equivalent amounts into 75 cm^2 flasks or into 9.6 cm^2 wells (6-well plates, Falcon) and were counted 24 hr later to determine plating efficiency. Drugs or sterile water were added beginning 24 hr after seeding (=0 hours) and both media and drugs were changed daily. All drugs were prepared in sterile water and dilutions represent final concentrations of the compounds. At appropriate times, cells were harvested with 0.05% trypsin/0.53 mM EDTA, centrifuged, and counted with a hemacytometer at 200×. Cell viability was determined by trypan blue staining. At least 2 aliquots/flask or well were counted and 2 flasks or wells/time point/treatment group were sampled.
(§3) To examine the ubiquity of opioid activity with respect to colon cancer, two other colon cancer cell lines were investigated: COLO 205 and WiDr.

[5] = tested on: WiDr cells; experiment: Growth assay (cell counts) of WiDr human colon cancer cells; assay type: cell-based; conditions: 10^−6 M, 48 hr
Method: as §1, §2, §3

[6] = tested on: HT-29 human colon cancer cells; experiment: HT-29 human colon cancer xenografts in nude mice treated with OGF and/or naloxone
[7] = tested on: HT-29 cells; experiment: Growth assay (cell counts) of HT-29 human colon cancer cells in culture; assay type: cell-based
Method: In some examples, cultures of HT-29 cells were maintained in McCoy's 5A media without fetal calf serum.
as §2

[8] = target: T3, [Met5]-enkephalin receptor (Homo sapiens, UniProt Q9NZT2); experiment: [3H]-[Met5]-enkephalin binding on HT-29 cells after 48 h exposure to OGF or NTX (receptor regulation)
T3 construct: endogenous in cells; host or cells: HT-29 human colon cancer cells, log phase, nuclear pellet (P1)
T3 sequence (Q9NZT2 1-677): T1 sequence (Q9NZT2 1-677)
Method: Log phase cells were incubated in 0.05% trypsin for at least 30 min with gentle agitation at 37° C. in order to reduce clumping of cells and facilitate isolation of cell nuclei. Preparations were homogenized (Polytron, setting 6, 2×10 sec) in a 1:20 (wt/vol) solution (=Tris/all) of cold 50 mM Tris HCl buffer with 0.1 mg/ml bacitracin, 1 μg/ml leupeptin, 60 nM thiorphan, 1 mM EGTA, and 0.6 mg/l PMSF, pH 7.4, at 4° C. […] Protein homogenates of P1 were diluted with Tris/all and incubated at room temperature (22° C.) for 20 min to remove endogenous opioid peptides.
The final volume of the incubation mixture was 1 ml. The incubation was terminated by rapid filtration through Whatman GF-B filters under vacuum pressure with a Brandel Cell Harvester. Filters were rinsed three times with 5 ml volumes of ice-cold 50 mM Tris buffer, dried at 60° C. for 1 hour, and counted in a 2:1 solution of Aquasol-toluene by liquid scintillation spectrometry (Beckman LS-2800). […] Duplicate tubes of homogenates were assayed for each-concentration utilized. Protein concentrations were determined by the BioRad method with gamma globulin as a standard.

[9] = target: T1, ζ-opioid receptor; experiment: Competition for binding of [3H][Met5]enkephalin (4.0 nM) in nuclear homogenates of HT-29 human colon tumors; design: from tissue; host or cells: HT-29 human colon tumor xenografts grown in athymic nude mice; nuclear (P1) and other subcellular fractions
[10] = tested on: BxPC-3 human pancreatic tumor cells; experiment: BxPC-3 human pancreatic tumor xenografts in nude mice treated with OGF; assay type: in vivo
Method: BxPC-3 human pancreatic cancer cells, purchased from the American Type Culture Collection (Rockville, Md.), were grown in RPMI media containing 10% fetal calf serum, penicillin (10 units/ml), and streptomycin (100 μg/ml) in an atmosphere of 93% air and 7% CO2 at 37° C. Cell viability was determined by the trypan blue exclusion test. Three-to-4-week-old male athymic nude mice, obtained from Charles River Laboratories (Wilmington, Mass.), were injected subcutaneously over the right shoulder with BxPC-3 cells (log phase) in a 0.5 ml suspension of RPMI media. The day of tumor cell inoculation was considered day 0. Mice were evaluated daily and the date that the tumor became ‘visible’ was recorded. Individual tumors were measured with vernier calipers every 2 days. Measurements of the largest perpendicular dimensions were recorded and tumor volume was calculated using the formula: length×width^2×0.5[25]. The time of ‘initial’ appearance of a tumor wag considered to be the day when tumor volume was 5 mm^3 of greater. All mice were euthanized and necropsied 30 days after tumor cell inoculation. Tumor tissues for receptor binding assays, radioimmunoassays, and immunocytochemistry were rapidly frozen in liquid nitrogen and stored at −70° C. until assayed.
Drug treatment was initiated on the day of tumor cell inoculation. […] Injections were administered in the right or left flank. Animals were weighed weekly and appropriate dosage adjustments made.
The latencies for visible and initial tumor appearance, as well as the appearance of a tumor volume measuring 62.5 mm^3 (when each perpendicular measurement was 5 mm), were recorded.
Latencies for visible and initial appearance as well as tumors ≧62.5 mm were analyzed using one way analysis of variance; subsequent comparisons were made with the Newman-Keuls tests. The number of mice with initial tumor appearance on selected days was expressed as a ratio of the total number of mice in the group, and comparisons of percentages were made with chi-square tests.

[11] = target: T1, ζ-opioid receptor; conditions: nuclear preparation of cultured HT-29 cells
[12] = target: T1, ζ-opioid receptor; conditions: for Bmax, fmol/mg protein: subcellular fractionation, P1 nuclear fraction
[13] = target: T1, ζ-opioid receptor
[14] = 5 mg/kg OGF three times daily s.c.

Nc1nc2c(ncn2C2OC(COP(=O)([O-])OP(=O)([O-])NP(=O)([O-])[O-])C(O)C2O)c(=O)[nH]1.[Li+].[Li+].[Li+].[Li+] (stereo not drawn) [GppNHp, guanylyl-imidodiphosphate (GppNHp) tetralithium salt]
effect on binding of [3H]-[Met5]-enkephalin [1]: not markedly reduced

C[C@@H](NC(=O)[C@@H](N)Cc1ccc(O)cc1)C(=O)NCC(=O)N(C)[C@@H](Cc1ccccc1)C(=O)NCCO [[3H]DAMGO]
Bmax, fmol/mg protein [2]: 20.9 ± 4.8 fmol/mg protein

[Met^5]-enkephalin
binding affinity versus control group ([3]; tumors from OGF-treated mice): did not differ
binding sites reduced from control levels ([3]; tumors from OGF-treated mice): 58%
Bmax, fmol/mg protein ([3]; tumors from mice treated with 5 mg/kg OGF three times daily): 24.6 ± 5.2 fmol/mg protein
fewer cells than control cultures [4]: 58%
fewer cells than control cultures [5]: 41%
Latency for measurable tumor appearance ([6]; 0.5 mg/kg daily): 28.0 ± 0.0 days
Latency for measurable tumor appearance, days, range ([6]; 0.5 mg/kg daily): (28) days
Latency for palpable tumor ([6]; 0.5 mg/kg daily): 18.6 ± 3.2 days
Latency for visible tumor ([6]; 0.5 mg/kg daily): 22.4 ± 2.6 days
No. of mice with tumors 21 days after inoculation ([6]; 0.5 mg/kg daily): 2/14†
No. of mice with tumors 50 days after inoculation ([6]; 0.5 mg/kg daily): 7/14*
Latency for measurable tumor appearance ([6]; 5 mg/kg daily): 22.2 ± 2.3 days
Latency for measurable tumor appearance, days, range ([6]; 5 mg/kg daily): (13-22) days
Latency for palpable tumor ([6]; 5 mg/kg daily): 19.2 ± 2.2 days
Latency for visible tumor ([6]; 5 mg/kg daily): 20.2 ± 2.2 days
No. of mice with tumors 21 days after inoculation ([6]; 5 mg/kg daily): 4/14†
No. of mice with tumors 50 days after inoculation ([6]; 5 mg/kg daily): 6/14†
Latency for measurable tumor appearance ([6]; 25 mg/kg daily): 24.0 ± 4.5 days
Latency for measurable tumor appearance, days, range ([6]; 25 mg/kg daily): (12-32) days
Latency for palpable tumor ([6]; 25 mg/kg daily): 22.0 ± 4.5 days
Latency for visible tumor ([6]; 25 mg/kg daily): 23.0 ± 4.5 days
No. of mice with tumors 21 days after inoculation ([6]; 25 mg/kg daily): 2/14†
No. of mice with tumors 50 days after inoculation ([6]; 25 mg/kg daily): 6/14†
animals with a tumor ([6]; 50 days after inoculation, 0.5, 5, or 25 mg/kg OGF): 36-50%
mice that never developed xenografts of colon cancer ([6]; all OGF doses, 7-wk experimental period): 57%
mice with a measurable tumor ([6]; by day 21, 0.5, 5, or 25 mg/kg OGF): 14-28%
dose-response of tumor incidence and delay in oncogenesis ([6]; mouse, in vivo): no distinct dose-response effect
cell number greater after removal than in cultures maintained with peptide [7]: more than 80%
cell number versus controls [7]: comparable to controls
decrease in cell number from control values [7]: 35%
effect on cell growth in serum-free media [7]: inhibitory effect on cell growth
more cells after removal than in cultures continuing to receive peptide [7]: 37%
reduction in number of colon cancer cells [7]: 41% and 56%
Bmax of [3H]-[Met5]-enkephalin ([8]; HT-29 cells after 48 h of exposure to the treatment): 18.6 ± 1.1
Bmax reduced versus control cells ([8]; chronic exposure (48 h)): 50%
greater ability to displace [3H]-[Met5]-enkephalin than the next ranking compound [9]: 2.3 fold
Number of mice with tumors 7 days after tumor cell inoculation ([10]; 5 mg/kg OGF three times daily): 0/13*
Number of mice with tumors 14 days after tumor cell inoculation ([10]; 5 mg/kg OGF three times daily): 5/13*
Number of mice with tumors 15 days after tumor cell inoculation ([10]; 5 mg/kg OGF three times daily): 8/13*
Number of mice with tumors 22 days after tumor cell inoculation ([10]; 5 mg/kg OGF three times daily): 12/13
Number of mice with tumors 30 days after tumor cell inoculation ([10]; 5 mg/kg OGF three times daily): 12/13
interval from inoculation to initial tumor appearance longer than sterile water ([10]; 5 mg/kg OGF three times daily): 43%
latency until tumor reached 62.5 mm^3 longer than control group ([10]; 5 mg/kg OGF three times daily): ~41%
visible tumors developed later than controls ([10]; 5 mg/kg OGF three times daily): more than 3 days
Latency (days) for tumors of 62.5 mm^3 in size [10, 14]: 17.2 ± 1.1 days
Latency (days) for visible tumor [10, 14]: 12.7 ± 1.4 days
Latency (days) for initial tumor appearance ([10]; 5 mg/kg OGF three times daily s.c., listed as OGF): 15.2 days and 15.2 ± 1.2 days
animals without a neoplasia ([10]; day 15): ~40%
mice with a tumor measuring ≧5 mm^3 ([10]; fifteen days after tumor cell inoculation): less than 62%
mean tumor volumes versus control group ([10]; within the 30 days of the experiment): no significant differences

[^3H]-[Met^5]-enkephalin
binding capacity (Bmax) ([3]; tumor tissue from control animals): 46.8±4.0 fmol/mg protein
binding capacity (Bmax) [11]: 43 fmol/mg protein
mean binding capacity (Bmax) ([12]; P1 nuclear homogenates of HT-29 tumors, 150 min, 22° C., pH 7.4): 364.8±25.7 fmol/mg protein
Bmax, fmol/mg protein [12]: 256.0±12.6 fmol/mg protein
Bmax, fmol/mg protein ([12]; listed as [^3H][Met^5]enkephalin): 256.0 ± 12.6 fmol/mg protein
Bmax, fmol/mg protein ([13]; Patient 1, splenic flexure adenocarcinoma): 34.3 ± 9.0 fmol/mg protein
Bmax, fmol/mg protein ([13]; Patient 2, sigmoid adenocarcinoma): 32.7 ± 1.4 fmol/mg protein
mean binding capacity (Bmax) ([13]; data from both patients averaged): 33.5±4.1 fmol/mg protein
